Measured values published in patent US4339426A, “Bleomycin analog” (Regents of the University of California, priority 1980, dated 1982).

Assays:
VX2 adenocarcinomas = experiment: Tumor localization scans in rabbits bearing VX2 adenocarcinomas; type: in vivo, white rabbits; settings: for concentration of radioactivity in kidneys and bladder: two hours after injection
Description: Solutions of the indium-111 chelates of BLEDTA (A) or BLEDTA (B) were injected into the ear veins of white rabbits bearing type VX2 adenocarcinomas implanted under the right foreleg and the right hind leg. Two hours after injection, and again 18 to 24 hours after injection, the rabbits were scanned with a gamma camera, which provides a two-dimensionaldisplay of the distribution of radioactivity in the body. Scans were obtained 24 hours after injection of 700 μCi of ^111 In-BLEDTA(A).

KHJJ tumor = experiment: Organ distribution and tumor uptake of 111In-BLEDTA(B) in BALB/c mice with KHJJ tumor (Table II); type: in vivo
Description: The two bleomycin analogs-BLEDTA(A) and (B)-were rapidly and specifically labelled with ^111 In^3.spsp.+. A small aliquot of a dilute solution (10^-4 M) of BLEDTA(A) and (B) respectively in 0.1 M citrate (pH 2.8) was added to a container of dry ^111 InCl3, and incubated for 5 minutes at room temperature. The solutions were then diluted with normal saline solution for injection.
Following the injection of ^111 In-BLEDTA(B) into the tail veins of specially prepared BALB/c mice, the organ distribution and tumor uptake of radioactivity were determined. A tumor line, "KHJJ", derived from a primary mammary carcinoma arising in a mouse and maintained for over 100 transplant generations was used for the assay. Transplantation was by subcutaneous implantation of tumor fragments about 1 mm in diameter into the flank. The studies were carried out after 14 days of growth, when the tumor had reached a size of about 1 cm^3. On histological examination,the tumor has a "carcinoma-like" pattern with a predominance of islands of round or polygonal malignant cells with little stroma and a generally undifferentiated appearance. After transplantation, the tumor takes in almost all animals and grows without metastasizing or killing the mice within 14 days.
[…] After 18 hours, each mouse was anesthetized with ether, and blood was collected from the jugular vein into two preweighed capillary tubes. The mouse then was killed instantly by cervical dislocation and the major organs excised. Samples of muscle, skin, bone (left femur plus marrow), tail, and tumor also were taken. All tissue samples were weighed immediately after excision and counted in a well-type scintillation counter.

[1] = 24 hours after injection of 700 μCi
[2] = Table II, BLEDTA B 18 hours after tail vein injection

SMILES	visualization of small tumor 1 cm in diameter under right foreleg (VX2 adenocarcinomas; [1])	visualization of tumor 2 to 3 cm in diameter under right hind leg (VX2 adenocarcinomas; [1])	concentration of radioactivity in kidneys and bladder (VX2 adenocarcinomas)	uptake of radioactivity in liver and bone (KHJJ tumor; 18 hours)	Distribution and uptake: Blood (KHJJ tumor; [2])	Distribution and uptake: Bone (KHJJ tumor; [2])	Distribution and uptake: Kidneys (KHJJ tumor; [2])	Distribution and uptake: Liver (KHJJ tumor; [2])	Distribution and uptake: Lungs (KHJJ tumor; [2])	Distribution and uptake: Muscle (KHJJ tumor; [2])	Distribution and uptake: Skin (KHJJ tumor; [2])	Distribution and uptake: Spleen (KHJJ tumor; [2])	Distribution and uptake: Tumor (KHJJ tumor; Table II, KHJJ tumor, BLEDTA B 18 hours after tail vein injection)	tumor/organ radioactivity concentration ratios (KHJJ tumor; all organs examined except the kidneys)
Cc1c(N)nc(C(CC(N)=O)NCC(N)C(N)=O)nc1C(=O)NC(C(=O)NC(C)C(O)C(C)C(=O)NC(C(=O)NCCc1nc(-c2nc(C(=O)NCCC[S+](C)CC(=O)Nc3ccc(C(CN(CC(=O)O)CC(=O)O)N(CC(=O)O)CC(=O)O)cc3)cs2)cs1)C(C)O)C(OC1OC(CO)C(O)C(O)C1OC1OC(CO)C(O)C(OC(N)=O)C1O)c1cnc[nH]1 (stereo not drawn) [BLEDTA(A)]	clearly visualized	strikingly evident	high concentrations of radioactivity in the kidneys and bladder											
Cc1c(N)nc(C(CC(N)=O)NCC(N)C(N)=O)nc1C(=O)NC(C(=O)NC(C)C(O)C(C)C(=O)NC(C(=O)NCCc1nc(-c2nc(C(=O)NCCCSCC(=O)Nc3ccc(C(CN(CC(=O)O)CC(=O)O)N(CC(=O)O)CC(=O)O)cc3)cs2)cs1)C(C)O)C(OC1OC(CO)C(O)C(O)C1OC1OC(CO)C(O)C(OC(N)=O)C1O)c1cnc[nH]1 (stereo not drawn) [BLEDTA(B)]			high concentrations of radioactivity in the kidneys and bladder	quite low	.205 ± .066 % of injected radioactivity pe	.188 ± .080 % of injected radioactivity pe	1.023 ± .333 % of injected radioactivity pe	.263 ± .068 % of injected radioactivity pe	.254 ± .067 % of injected radioactivity pe	.063 ± .015 % of injected radioactivity pe	.166 ± .052 % of injected radioactivity pe	.327 ± .088 % of injected radioactivity pe	.393 ± .015 % of injected radioactivity pe	Favorable
